From US9290777B2, “Putative cytokinin receptor and methods for use thereof” (NATIONAL UNIVERSITY OF SINGAPORE, priority 2007, dated 2016)
Entries after “also recorded” stand apart in the source; their conditions may differ.

Test system: KNAT1
Test: qRT-PCR of cytokinin responsive gene after BA pulse, fold change vs untreated wild type
Assay type: cell-based, Arabidopsis thaliana

## c1ccc(CNc2ncnc3nc[nH]c23)cc1 [benzyladenine]
5 μM BA, 1 h, OE lines (e.g. OE1, OE12), listed as BA
  KNAT1 transcripts in OE lines compared to untreated wild type: less than a two fold change; also recorded: no significant difference
BA 0.01 μM, 5 min, AS1, ↑ up
  KNAT1 fold change: 8.12↑
BA 0.01 μM, 5 min, AS8, ↑ up
  KNAT1 fold change: 9.1↑
BA 0.01 μM, 5 min, AS21, ↑ up
  KNAT1 fold change: 10.01↑
BA 0.01 μM, 5 min, OE1, ↓ down
  KNAT1 fold change: 4.01↓
BA 0.01 μM, 5 min, OE12, ↓ down
  KNAT1 fold change: 4.87↓
BA 0.01 μM, 5 min, OE18, ↓ down
  KNAT1 fold change: 6.56↓
BA 0.01 μM, 5 min, Wild type, ↑ up
  KNAT1 fold change: 2.13↑
BA 0.01 μM, 15 min, AS1, ↑ up
  KNAT1 fold change: 8.57↑
BA 0.01 μM, 15 min, AS8, ↑ up
  KNAT1 fold change: 9.21↑
BA 0.01 μM, 15 min, AS21, ↑ up
  KNAT1 fold change: 10.39↑
BA 0.01 μM, 15 min, OE1, ↓ down
  KNAT1 fold change: 3.86↓
BA 0.01 μM, 15 min, OE12, ↓ down
  KNAT1 fold change: 4.56↓
BA 0.01 μM, 15 min, OE18, ↓ down
  KNAT1 fold change: 6.32↓
BA 0.01 μM, 15 min, Wild type, ↑ up
  KNAT1 fold change: 2.67↑
BA 0.01 μM, 30 min, AS1, ↑ up
  KNAT1 fold change: 8.98↑
BA 0.01 μM, 30 min, AS8, ↑ up
  KNAT1 fold change: 9.86↑
BA 0.01 μM, 30 min, AS21, ↑ up
  KNAT1 fold change: 10.53↑
BA 0.01 μM, 30 min, OE1, ↓ down
  KNAT1 fold change: 3.41↓
BA 0.01 μM, 30 min, OE12, ↓ down
  KNAT1 fold change: 4.13↓
BA 0.01 μM, 30 min, OE18, ↓ down
  KNAT1 fold change: 6.13↓
BA 0.01 μM, 30 min, Wild type, ↑ up
  KNAT1 fold change: 2.98↑
BA 0.01 μM, 1 h, AS1, ↑ up
  KNAT1 fold change: 9.20↑
BA 0.01 μM, 1 h, AS8, ↑ up
  KNAT1 fold change: 9.98↑
BA 0.01 μM, 1 h, AS21, ↑ up
  KNAT1 fold change: 11.99↑
BA 0.01 μM, 1 h, OE1, ↓ down
  KNAT1 fold change: 3.01↓
BA 0.01 μM, 1 h, OE12, ↓ down
  KNAT1 fold change: 3.06↓
BA 0.01 μM, 1 h, OE18, ↓ down
  KNAT1 fold change: 5.98↓
BA 0.01 μM, 1 h, Wild type, ↑ up
  KNAT1 fold change: 3.15↑
BA 0.1 μM, 5 min, AS1, ↑ up
  KNAT1 fold change: 9.14↑
BA 0.1 μM, 5 min, AS8, ↑ up
  KNAT1 fold change: 10.12↑
BA 0.1 μM, 5 min, AS21, ↑ up
  KNAT1 fold change: 11.11↑
BA 0.1 μM, 5 min, OE1, ↓ down
  KNAT1 fold change: 3.56↓
BA 0.1 μM, 5 min, OE12, ↓ down
  KNAT1 fold change: 3.91↓
BA 0.1 μM, 5 min, OE18, ↓ down
  KNAT1 fold change: 5.89↓
BA 0.1 μM, 5 min, Wild type, ↑ up
  KNAT1 fold change: 3.36↑
BA 0.1 μM, 15 min, AS1, ↑ up
  KNAT1 fold change: 9.39↑
BA 0.1 μM, 15 min, AS8, ↑ up
  KNAT1 fold change: 10.32↑
BA 0.1 μM, 15 min, AS21, ↑ up
  KNAT1 fold change: 11.26↑
BA 0.1 μM, 15 min, OE1, ↓ down
  KNAT1 fold change: 3.24↓
BA 0.1 μM, 15 min, OE12, ↓ down
  KNAT1 fold change: 3.71↓
BA 0.1 μM, 15 min, OE18, ↓ down
  KNAT1 fold change: 5.72↓
BA 0.1 μM, 15 min, Wild type, ↑ up
  KNAT1 fold change: 3.58↑
BA 0.1 μM, 30 min, AS1, ↑ up
  KNAT1 fold change: 9.69↑
BA 0.1 μM, 30 min, AS8, ↑ up
  KNAT1 fold change: 10.57↑
BA 0.1 μM, 30 min, AS21, ↑ up
  KNAT1 fold change: 11.48↑
BA 0.1 μM, 30 min, OE1, ↓ down
  KNAT1 fold change: 3.12↓
BA 0.1 μM, 30 min, OE12, ↓ down
  KNAT1 fold change: 3.59↓
BA 0.1 μM, 30 min, OE18, ↓ down
  KNAT1 fold change: 5.36↓
BA 0.1 μM, 30 min, Wild type, ↑ up
  KNAT1 fold change: 3.89↑
BA 0.1 μM, 1 h, AS1, ↑ up
  KNAT1 fold change: 9.98↑
BA 0.1 μM, 1 h, AS8, ↑ up
  KNAT1 fold change: 10.99↑
BA 0.1 μM, 1 h, AS21, ↑ up
  KNAT1 fold change: 11.83↑
BA 0.1 μM, 1 h, OE1, ↓ down
  KNAT1 fold change: 2.96↓
BA 0.1 μM, 1 h, OE12, ↓ down
  KNAT1 fold change: 3.21↓
BA 0.1 μM, 1 h, OE18, ↓ down
  KNAT1 fold change: 5.01↓
BA 0.1 μM, 1 h, Wild type, ↑ up
  KNAT1 fold change: 3.99↑
BA 1.0 μM, 5 min, AS1, ↑ up
  KNAT1 fold change: 10.43↑
BA 1.0 μM, 5 min, AS8, ↑ up
  KNAT1 fold change: 11.01↑
BA 1.0 μM, 5 min, AS21, ↑ up
  KNAT1 fold change: 11.93↑
BA 1.0 μM, 5 min, OE1, ↓ down
  KNAT1 fold change: 2.76↓
BA 1.0 μM, 5 min, OE12, ↓ down
  KNAT1 fold change: 3.19↓
BA 1.0 μM, 5 min, OE18, ↓ down
  KNAT1 fold change: 4.36↓
BA 1.0 μM, 5 min, Wild type, ↑ up
  KNAT1 fold change: 4.1↑
BA 1.0 μM, 15 min, AS1, ↑ up
  KNAT1 fold change: 10.68↑
BA 1.0 μM, 15 min, AS8, ↑ up
  KNAT1 fold change: 11.43↑
BA 1.0 μM, 15 min, AS21, ↑ up
  KNAT1 fold change: 12.02↑
BA 1.0 μM, 15 min, OE1, ↓ down
  KNAT1 fold change: 2.51↓
BA 1.0 μM, 15 min, OE12, ↓ down
  KNAT1 fold change: 3.01↓
BA 1.0 μM, 15 min, OE18, ↓ down
  KNAT1 fold change: 4.21↓
BA 1.0 μM, 15 min, Wild type, ↑ up
  KNAT1 fold change: 4.31↑
BA 1.0 μM, 30 min, AS1, ↑ up
  KNAT1 fold change: 10.73↑
BA 1.0 μM, 30 min, AS8, ↑ up
  KNAT1 fold change: 11.69↑
BA 1.0 μM, 30 min, AS21, ↑ up
  KNAT1 fold change: 12.35↑
BA 1.0 μM, 30 min, OE1, ↓ down
  KNAT1 fold change: 2.29↓
BA 1.0 μM, 30 min, OE12, ↓ down
  KNAT1 fold change: 2.89↓
BA 1.0 μM, 30 min, OE18, ↓ down
  KNAT1 fold change: 4.01↓
BA 1.0 μM, 30 min, Wild type, ↑ up
  KNAT1 fold change: 4.59↑
BA 1.0 μM, 1 h, AS1, ↑ up
  KNAT1 fold change: 11.01↑
BA 1.0 μM, 1 h, AS8, ↑ up
  KNAT1 fold change: 11.93↑
BA 1.0 μM, 1 h, AS21, ↑ up
  KNAT1 fold change: 12.76↑
BA 1.0 μM, 1 h, OE1, ↓ down
  KNAT1 fold change: 2.01↓
BA 1.0 μM, 1 h, OE12, ↓ down
  KNAT1 fold change: 2.16↓
BA 1.0 μM, 1 h, OE18, ↓ down
  KNAT1 fold change: 3.92↓
BA 1.0 μM, 1 h, Wild type, ↑ up
  KNAT1 fold change: 4.87↑
BA 5.0 μM, 5 min, AS1, ↑ up
  KNAT1 fold change: 10.98↑
BA 5.0 μM, 5 min, AS8, ↑ up
  KNAT1 fold change: 11.98↑
BA 5.0 μM, 5 min, AS21, ↑ up
  KNAT1 fold change: 12.43↑
BA 5.0 μM, 5 min, OE1, ↓ down
  KNAT1 fold change: 2.19↓
BA 5.0 μM, 5 min, OE12, ↓ down
  KNAT1 fold change: 2.87↓
BA 5.0 μM, 5 min, OE18, ↓ down
  KNAT1 fold change: 3.45↓
BA 5.0 μM, 5 min, Wild type, ↑ up
  KNAT1 fold change: 5.52↑
BA 5.0 μM, 15 min, AS1, ↑ up
  KNAT1 fold change: 11.01↑
BA 5.0 μM, 15 min, AS8, ↑ up
  KNAT1 fold change: 12.07↑
BA 5.0 μM, 15 min, AS21, ↑ up
  KNAT1 fold change: 12.54↑
BA 5.0 μM, 15 min, OE1, ↓ down
  KNAT1 fold change: 2.01↓
BA 5.0 μM, 15 min, OE12, ↓ down
  KNAT1 fold change: 2.62↓
BA 5.0 μM, 15 min, OE18, ↓ down
  KNAT1 fold change: 3.18↓
BA 5.0 μM, 15 min, Wild type, ↑ up
  KNAT1 fold change: 5.69↑
BA 5.0 μM, 30 min, AS1, ↑ up
  KNAT1 fold change: 11.23↑
BA 5.0 μM, 30 min, Wild type, ↑ up
  KNAT1 fold change: 5.89↑
BA 0.01-5 μM pulse, 5 min-1 h
  KNAT1 transcripts, dose dependence: dose-dependent increase
